Data on 7 compounds can be found in patent publication US20240124483A1, “Methods for the Treatment of Fibrotic Disease” (SHY Therapeutics, LLC, priority 2021, published 2024).

One assay concerns MAPK p38. The assay can be described thus: MAPK p38 Activation Assay in Panc-1 (western blot). The format is cell-based, Human. Set-up: key: Y = yes; N = No. To be noted: at 10 μM. The protocol:
(§1) Cell lines: Human tumor-derived pancreatic cancer cell line Panc-1 and mouse muscle myoblast C2C12 were purchased from American Type Culture Collection and grown in complete DMEM-High Glucose, supplemented with penicillin (100 U/mL), streptomycin (100 μg/mL), and 10% heat-inactivated FBS at 37° C. in a humidified incubator with 5% CO2.
(§2) Method: Cells were plated at 350000 cells/well density in a 12-well plate, allowed 3 hours to adhere to the plate, then starved in the appropriate medium in the presence of 0.5% FBS overnight. The small molecules to be tested were added to the cells in the final concentration of 10 μM in the presence of 0.3% DMSO for 3 hours incubation at 37° C. For IC50 value determination, serial dilutions of compounds were added to cells under the same conditions. Next, Panc-1 cells were stimulated with 10 ng/ml TGF-b1 for 1 hour, and C2C12 cells were stimulated with 10 ng/ml TGF-b1 for 20 minutes (recombinant human TGF-b1, R&D Systems). After stimulation cells were lysed with lysis buffer containing 1% Triton X-100, EDTA, and Halt™ Protease & Phosphatase Inhibitor Cocktail (Thermo Scientific). Protein concentration was assessed by BCA protein assay (Thermo Scientific). Phosphorylation level of MAPK p38 was determined by western blot.
(§3) Western blot protocol: Equal amounts of protein (15-50 μg) were separated by SDS-PAGE and transferred to nitrocellulose membranes (Invitrogen by Thermo Fisher Scientific). The membrane was stained with Ponceau S Stain (Boston BioProducts) to verify uniform protein loading. Membranes were blocked with 10% milk and phosphorylation levels of Smad2/Smad3 were assessed by incubating overnight at 4° C. with the following antibody: Phospho-p38 MAPK (Thr180/Tyr182), from Cell Signaling Technology. Then the membranes were incubated with HRP-conjugated secondary antibody (Jackson Immunoresearch, West Grove, PA). Bands were incubated in Amersham ECL Prime Western Blotting Detection Reagent (GE Healthcare) and visualized using the ChemiDoc MP imaging system (Bio-Rad).

A further assay relates to MiaPaca2. The assay can be described thus: MiaPaca2 proliferation. The format is cell-based. To be noted: Homo sapiens, MIA PaCa-2; for inhibition at 10 µM: read-out: % inh of proliferation in MiaPaca2.
The test system of another assay is Smad2/3 phosphorylation. Nature of the assay: Phospho-Smad2/3 Inhibition Assay in Panc-1 (western blot). The conditions noted are these: Homo sapiens; 10 μM, 3 hours; PANC-1 stimulated with 10 ng/ml TGF-b1 for 1 hour; read-out: % inh of Smad2/3 phosphorylation in PANC-1. Type of assay: cell-based. The protocol: as §1
as §2, with “Smad2/Smad3” for “MAPK p38”
as §3, with “antibodies: Phospho-Smad2 (Ser465/467) and Phosph-Smad3 (Ser423/425), both” for “antibody: Phospho-p38 MAPK (Thr180/Tyr182),”

Another assay addresses KRas G12D mutant (Homo sapiens (Human), UniProt P01116, G12D). Nature of the assay: Ras GTP Binding Domain Inhibition Assay, KRas G12D mutant. The conditions noted are these: for inhibition at 20 µM: Table 7; for KRas G12D mutant + SOS: % inh. / KRas G12D mutant: % inh.: 20 uM, Table 8. The protocol: A Ras Superfamily Activity Assay (as disclosed in International Application No. PCT/US2018/038613, filed Jun. 20, 2018, which is incorporated by reference in its entirety) was used as a specific assay to evaluate compounds against the following for the following Ras Superfamily proteins: KRas wild type, KRas Q61H mutant, KRas G12C mutant, KRas G12D mutant, Rac-1, and Rho-A.
Buffer-I: • 25 mM Tris-HCl, pH 7.4 • 27 mM KCl • 137 mM NaCl • 1 mM MgCl2 • 1 mM DTT
Buffer-II: • 50 mM Tris-HCl, pH 7.0 • 1 mM MgCl2 • 1 mM DTT
The small GTPases proteins: KRas wild type. KRas Q61H mutant, KRas G12C mutant, KRas G12D mutants, Rac-1, and Rho-A were expressed as His-tagged proteins. In addition, the Guanosine nucleotide Exchange Factor (GEF) Sos protein (residues 556-1049) was expressed as a His-tagged protein. In cells, the guanine nucleotide exchange factor Sos protein promotes activation of Ras proteins by stimulating an exchange of GDP for GTP. The inclusion of Sos to the Ras GTP binding domain inhibition assay may be considered as an alternative representation of physiological cellular conditions for evaluating the inhibitory activity of some of the tested small molecules.
For the assay, all purified small GTPases proteins were diluted in Buffer-I or Buffer-II to a final concentration of 10-30 μg/mL. 200 μL of each diluted protein was added to a nickel-coated 96-well plate and incubated overnight at 4° C. Then the protein solution was discarded and 200 μL of Buffer-I or Buffer-II was added to each well in the presence of 1% DMSO. Compounds to be tested were added to the protein-coated wells at final concentration of 20 μM, and incubated for 3 hours at room temperature with and without 10-30 μg/mL of Sos added to the final hour of the incubation. When performing IC50 measurements a serial dilution of all tested concentrations was added. Then Cy3-GTP or Cy5-GTP was added to each well to a final concentration of 100 nM. The labeled GTP was incubated for 45 minutes at room temperature. Following GTP incubation, wells were washed 3× in Buffer-I or Buffer-II and 200 μL of Buffer-I or Buffer-II was added to each well. Following washes, the amount of bound labeled-GTP was measured using a SpectraMax M3 (Molecular Devices).

Where [1] appears, read: + SOS, read-out: KRas G12D mutant + SOS: % inh.
[2] abbreviates: without SOS, read-out: KRas G12D mutant: % inh.

Structures are written as SMILES. Like-named read-outs stand apart in the source and are kept apart here.

KRas G12D mutant, sequence (P01116 other isoform, or with tags, fused parts or gaps G12D): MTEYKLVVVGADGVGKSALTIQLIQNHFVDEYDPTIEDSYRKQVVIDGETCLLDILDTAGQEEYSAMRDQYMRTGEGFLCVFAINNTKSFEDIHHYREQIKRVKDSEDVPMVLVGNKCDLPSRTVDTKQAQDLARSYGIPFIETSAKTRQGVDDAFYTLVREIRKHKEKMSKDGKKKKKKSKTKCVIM

One may read the IC50 as the concentration that gives 50% inhibition. `COC1CCCN(c2nc(-c3nccn3C)nc3sc(-c4ccn(C(C)C)n4)c(C)c23)C1` (racemic) [Compound 14, rac-6-(1-Isopropyl-1H-pyrazol-3-yl)-4-(3-methoxypiperidin-1-yl)-5-methyl-2-(1-methyl-1H-imidazol-2-yl)thieno[2,3-d]pyrimidine]: in the assay on MAPK p38, the “Activation of MAPK p38 in PANC-1” value is given as “Y”. In the assay on MiaPaca2, the IC50 was 5 to 10 µM and the inhibition at 10 µM lay in the range of 76 to 100%. The inhibition at 10 µM in the assay with Smad2/3 phosphorylation fell in the range of 46 to 75%.
Turning to `COCC1CN(c2nc(-c3nccn3C)nc3sc(-c4ccn(C(C)C)n4)c(C)c23)CCO1` (racemic) [Compound 15, 4-(6-(1-Isopropyl-1H-pyrazol-3-yl)-5-methyl-2-(1-methyl-1H-imidazol-2-yl)thieno[2,3-d]pyrimidin-4-yl)-2-(methoxymethyl)morpholine], the “Activation of MAPK p38 in PANC-1” value in the assay on MAPK p38 is on record as “Y”. Further, the inhibition at 20 µM at KRas G12D mutant (setting [1]) and at KRas G12D mutant (setting [2]) was 76 to 100% throughout. In addition, at KRas G12D mutant (+ SOS), the “KRas G12D mutant + SOS: % inh.” value is reported as “D (D = 76-100% inhibition)”. In addition, the “KRas G12D mutant: % inh.” value at KRas G12D mutant (without SOS) is “D (D = 76-100% inhibition)”. This compound also yielded an IC50 in the assay with MiaPaca2 of 5 to 10 µM. Further, the figures for the inhibition at 10 µM in the assay on MiaPaca2 and in the assay on Smad2/3 phosphorylation were 46 to 75% and 26 to 45%, respectively.
As for `COCCO[C@H]1CC[C@@H](Nc2nc(-c3nccn3C)nc3sc(-c4ccn(C(C)C)n4)c(C)c23)C1` (racemic) [Compound 20, rac-6-(1-Isopropyl-1H-pyrazol-3-yl)-N-((1R,3S)-3-(2-methoxyethoxy)cyclopentyl)-5-methyl-2-(1-methyl-1H-imidazol-2-yl)thieno[2,3-d]pyrimidin-4-amine], in the assay with MAPK p38, the “Activation of MAPK p38 in PANC-1” value is listed as “Y”. In addition, the inhibition at 20 µM at KRas G12D mutant (setting [1]) and at KRas G12D mutant (setting [2]) was 76 to 100% in each case. Also, the “KRas G12D mutant + SOS: % inh.” value at KRas G12D mutant (+ SOS) is “D (D = 76-100% inhibition)”. For the same compound, on KRas G12D mutant (without SOS), the “KRas G12D mutant: % inh.” value was “D (D = 76-100% inhibition)”. In the assay on MiaPaca2, the IC50 fell in the range of 1 to 4.99 µM. Besides, the inhibition at 10 µM with MiaPaca2 was 76 to 100%; in the assay with Smad2/3 phosphorylation it was 1 to 25%.
As for `Cc1c(-c2ccn(C(C)C)n2)sc2nc(-c3nccn3C)nc(NCC3COCCN3C)c12` (racemic) [Compound 24, rac-6-(1-Isopropyl-1H-pyrazol-3-yl)-5-methyl-2-(1-methyl-1H-imidazol-2-yl)-N-((4-methylmorpholin-3-yl)methyl)thieno[2,3-d]pyrimidin-4-amine], the “Activation of MAPK p38 in PANC-1” value with MAPK p38 was “Y”. Further, the inhibition at 20 µM lay in the range of 76 to 100% on KRas G12D mutant (setting [1]) and 46 to 75% at KRas G12D mutant (setting [2]). For the same compound, the “KRas G12D mutant + SOS: % inh.” value on KRas G12D mutant (+ SOS) is “D (D = 76-100% inhibition)”. The “KRas G12D mutant: % inh.” value at KRas G12D mutant (without SOS) is given as “C (C = 46-75% inhibition)”. The same compound came in with an IC50 in the assay with MiaPaca2 of 5 to 10 µM. Also, the inhibition at 10 µM with MiaPaca2 was 76 to 100%; in the assay with Smad2/3 phosphorylation, 0%.
For the compound `Cc1c(-c2ccn(C(C)C)n2)sc2nc(-c3nccn3C)nc(NCC3CN(C)CCO3)c12` (racemic) [Compound 25, rac-6-(1-Isopropyl-1H-pyrazol-3-yl)-5-methyl-2-(1-methyl-1H-imidazol-2-yl)-N-((4-methylmorpholin-2-yl)methyl)thieno[2,3-d]pyrimidin-4-amine], the “Activation of MAPK p38 in PANC-1” value in the assay with MAPK p38 is reported as “Y”. Also, the inhibition at 20 µM at KRas G12D mutant (setting [1]) and at KRas G12D mutant (setting [2]) was 76 to 100% in each case. For the same compound, on KRas G12D mutant (+ SOS), the “KRas G12D mutant + SOS: % inh.” value is given as “D (D = 76-100% inhibition)”. In addition, the “KRas G12D mutant: % inh.” value on KRas G12D mutant (without SOS) is “D (D = 76-100% inhibition)”. In addition, the IC50 in the assay with MiaPaca2 was in the range of 5 to 10 µM. Besides, the inhibition at 10 µM in the assay with MiaPaca2 was 46 to 75%; in the assay with Smad2/3 phosphorylation it was 0%.
`Cc1c(-c2ccn(C(C)C)n2)sc2nc(-c3nccn3C)nc(NCC3CCCO3)c12` (racemic) [Compound 26, rac-6-(1-Isopropyl-1H-pyrazol-3-yl)-5-methyl-2-(1-methyl-1H-imidazol-2-yl)-N-((tetrahydrofuran-2-yl)methyl)thieno[2,3-d]pyrimidin-4-amine]: the “Activation of MAPK p38 in PANC-1” value in the assay with MAPK p38 was “Y”. Besides, the inhibition at 20 µM at KRas G12D mutant (setting [1]) fell in the range of 46 to 75%; at KRas G12D mutant (setting [2]), 76 to 100%. The “KRas G12D mutant + SOS: % inh.” value at KRas G12D mutant (+ SOS) was “C (C = 46-75% inhibition)”. On KRas G12D mutant (without SOS), the “KRas G12D mutant: % inh.” value is on record as “D (D = 76-100% inhibition)”. In the assay with MiaPaca2, the IC50 is over 10 µM. The inhibition at 10 µM in the assay with MiaPaca2 was 46 to 75%; in the assay on Smad2/3 phosphorylation it was 0%.
For `COCCn1ccnc1-c1nc(N[C@H]2C[C@@H](OC)C2)c2c(-c3ccccc3)c(-c3ccn(C)n3)sc2n1` [Compound 13, N-((1s,3s)-3-methoxycyclobutyl)-2-(1-(2-methoxyethyl)-1H-imidazol-2-yl)-6-(1-methyl-1H-pyrazol-3-yl)-5-phenylthieno[2,3-d]pyrimidin-4-amine], the “Activation of MAPK p38 in PANC-1” value in the assay with MAPK p38 is recorded as “N”. Further, the inhibition at 20 µM lay in the range of 76 to 100% on KRas G12D mutant (setting [1]) and 46 to 75% at KRas G12D mutant (setting [2]). In addition, the “KRas G12D mutant + SOS: % inh.” value at KRas G12D mutant (+ SOS) is listed as “D (D = 76-100% inhibition)”. Besides, on KRas G12D mutant (without SOS), the “KRas G12D mutant: % inh.” value is “C (C = 46-75% inhibition)”. Further, in the assay on Smad2/3 phosphorylation, the inhibition at 10 µM lay in the range of 46 to 75%.
